Columns and labels:
HK-2 human kidney cells [1] = assay: Doxorubicin-induced apoptotic cell death of human renal proximal tubule epithelial cells; assay type: cell-based; settings: HK-2 cells, peptide added to the medium, FIG. 11
Experimental: The HK-2 human kidney cells were cultured in Keratinocyte-Serum Free Medium supplemented with recombinant epidermal growth factor and bovine pituitary extract. […] Each value represents the mean plus/minus the standard deviation of four determinations in three replicate experiments. **p<0.01 and *p<0.05 compared to the doxorubicin-treated (control) cells.
At the highest dose tested (10^−6 M), all three peptides reduced the apoptotic cell death of these epithelial cells by more than 60%.

[2] = tested on: light-chain immunoglobulin-secreting human myeloma cells; assay: Carmustine-induced apoptotic cell death of myeloma cells; assay type: cell-based
Experimental: (§1) The light-chain immunoglobulin-secreting human myeloma cells were cultured in RPMI 1640 medium supplemented with 10% non-inactivated fetal bovine serum and 0.05 mM 2-mercaptoethanol. The effects of PACAP38, and [Ala^22]PACAP38 on apoptotic cell death was assessed by the quantitative determination of cytoplasmic histone-associated DNA-fragmentation (mono- and oligonucleosomes) after exposure to carmustine for 48 hours. Each value represents the mean plus/minus the standard deviation of three determinations. **p<0.01 and *p<0.05 compared to the carmustine-treated (control) cells.

[3] = tested on: light-chain immunoglobulin-secreting human myeloma cells; assay: Vincristine-induced apoptotic cell death of myeloma cells; assay type: cell-based
Experimental: as §1, with “PACAP38” for “PACAP38, and [Ala^22]PACAP38”, “vincristine” for “carmustine”, “four” for “three”, “vincristine-treated” for “carmustine-treated”

Male C57BL/6 mice = assay: Cisplatin-induced nephrotoxicity in mice; assay type: in vivo, mouse; settings: cisplatin 20 mg/kg i.p.
Experimental: (§2) Male C57BL/6 mice were given a single intraperitoneal injection of 20 mg/kg of cisplatin. Twenty nanomoles of PACAP38 were given intraperitoneally 1 hour before the injection of cisplatin and additional doses were given at 24 and 48 hours after the initial dose. The control group of mice was injected intraperitoneally with the same volume of saline as for the injections of cisplatin and PACAP38 on the same schedule. The mice were euthanized 24 hours after the final injection of PACAP38. Each value represents the mean plus/minus the standard error of four determinations. ***p<0.001 and **p<0.01 compared to the group treated only with cisplatin.
as §2, with “PACAP38. TNF-α was extracted from one kidney of each mouse and quantified with an enzyme-linked immunosorbent assay.” for “PACAP38.”
Male C57BL/6 mice were given a single intraperitoneal injection of 20 mg/kg of cisplatin. Twenty nanomoles of PACAP38 were given intraperitoneally 1 hour before the injection of cisplatin and additional doses were given at 24 and 48 hours after the initial dose. The control group of mice were injected intraperitoneally with the same volume of saline as for the injections of cisplatin and PACAP38 on the same schedule. The mice were euthanized 24 hours after the final injection of PACAP38, and the kidneys were removed and fixed in 10% formalin. The fixed sections were stained with hematoxylin and eosin. The sections of the kidneys from control mice show intact renal tubular epithelial cells and well-preserved brush border membranes. The kidneys from mice treated with cisplatin had extensive tubular damage, tubular dilations, intratubular debris, and intratubular casts. […] Tubular damage was more pronounced in the outer cortex in the cisplatin treated mice. The photomicrographs on the left side were made at a lower magnification (×160) than the photomicrographs on the right side (×320). The results described in FIGS. 5, 6, 7, and 8 were from the same experiment.
as §2, with “six” for “four”
as §2, with “The cytoprotective effect of PACAP38 against cisplatin-induced nephrotoxicity was also seen in a common in vivo model. Male” for “Male”, “PACAP38.” for “PACAP38. Each value represents the mean plus/minus the standard error of four determinations. ***p<0.001 and **p<0.01 compared to the group treated only with cisplatin.”

HK-2 human kidney cells [4] = assay: Cisplatin-induced apoptotic cell death of human renal proximal tubule epithelial cells (histone-associated DNA fragmentation); assay type: cell-based; settings: HK-2 cells
Experimental: (§3) The HK-2 human kidney cells were cultured in Keratinocyte-Serum Free Medium supplemented with recombinant epidermal growth factor and bovine pituitary extract. The dose-dependent inhibitory effect of PACAP38 on apoptotic cell death was assessed by the quantitative determination of cytoplasmic histone-associated DNA-fragmentation (mono- and oligonucleosomes) after exposure to cisplatin for 24 hours. Each value represents the mean plus/minus the standard error of four determinations in three replicate experiments. **p<0.01 compared to the cisplatin-treated (control) cells.
as §3, with “deviation” for “error”, “different” for “replicate”, “**p<0.01 and *p<0.05” for “**p<0.01”

PACAP38
reduction in doxorubicin-induced apoptotic cell death (HK-2 human kidney cells [1]): significant dose-dependent reduction
relative potency as enhancer of carmustine-induced apoptotic cell death [2]: more potent than [Ala^22]PACAP38
effect on carmustine-induced apoptotic cell death ([2]; carmustine 48 hours, FIG. 17): enhancement
effect on carmustine-induced apoptotic cell death ([2]; highest dose tested (10^−6 M)): significantly enhanced
lowest dose with significant enhancement of vincristine-induced apoptotic cell death [3]: 10^−9 M
effect on vincristine-induced apoptotic cell death ([3]; vincristine 48 hours, FIG. 18): dose-dependent enhancement
increase in TNF-α in the kidney (Male C57BL/6 mice; 20 nanomoles peptide i.p. 1 h before and at 24 and 48 h, ELISA, FIG. 8): significantly reduced
increase in serum creatinine (Male C57BL/6 mice; 20 nanomoles peptide i.p. 1 h before and at 24 and 48 h, FIG. 6): significantly reduced
increase in blood urea nitrogen (Male C57BL/6 mice; 20 nanomoles peptide i.p. 1 h before and at 24 and 48 h, FIG. 7): significantly reduced
morphology of the kidney (hematoxylin and eosin) (Male C57BL/6 mice; 20 nanomoles peptide i.p. 1 h before and at 24 and 48 h, FIG. 9): relatively well preserved tubular morphology
relative potency as cytoprotectants against cisplatin-induced impairment of kidney function (serum creatinine) (Male C57BL/6 mice; FIG. 10): approximately equipotent
reduction in cisplatin-induced apoptotic cell death (HK-2 human kidney cells [4]; cisplatin 24 hours, peptide added to the medium, FIG. 3): significant dose-dependent reduction
relative effectiveness as protectants against cisplatin-induced apoptotic cell death (HK-2 human kidney cells [4]; comparable concentrations, FIG. 4): similarly effective
prevention of apoptotic cell death caused by cisplatin (HK-2 human kidney cells [4]; highest dose tested): almost completely prevented

Reference: patent US20110268789A1, “USE OF PITUITARY ADENYLATE CYCLASE-ACTIVATING POLYPEPTIDE (PACAP) AND PACAP ANALOGS AS ADJUNCTIVE TREATMENTS WITH ANTICANCER AGENTS” (priority 2008, published 2011)
